Data reported in PubChem BioAssay AID248 (DTP/NCI, 2004).
“And” between values parts separate entries of the source, which are not always exact repeats. Equal values may be shown once. Toxic doses and inconclusive results are not listed.

System: L1210 leukemia ip in BDF1 mice, survival T/C
Assay: NCI In Vivo Anticancer Drug Screen. Data for tumor model L1210 Leukemia (intraperitoneal) in B6D2F1 (BDF1) mice
Settings: endpoint: mean survival time, higher = longer survival
In short: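 In this screen, tumor-bearing mice given compound are compared to those given vehicle, and their survival values are reported as a treated-to-control quotient.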

[1] = dose: 100.0 mg/kg/injection, schedule: Q04DX003 (ip), vehicle: saline with Tween-80
[2] = dose: 200.0 mg/kg/injection, schedule: Q04DX003 (ip), vehicle: saline with Tween-80
[3] = dose: 400.0 mg/kg/injection, schedule: Q04DX003 (ip), vehicle: saline with Tween-80
[4] = dose: 100.0 mg/kg/injection, schedule: Q01DX009 (ip), vehicle: Klucel (hydroxypropylcellulose) (HPC)

O=C(Nc1cccc(C(=O)Nc2cc(C3=NCCN3)cc(C3=NCCN3)c2)c1)Nc1cccc(C(=O)Nc2cc(C3=NCCN3)cc(C3=NCCN3)c2)c1
T/C (dose: 15.0 mg/kg/injection, schedule: Q01DX Z (ip), vehicle: methylcellulose (MC)): 109 % of control | T/C (dose: 30.0 mg/kg/injection, schedule: Q01DX Z (ip), vehicle: methylcellulose (MC)): 105 % of control | T/C (dose: 60.0 mg/kg/injection, schedule: Q01DX Z (ip), vehicle: methylcellulose (MC)): 96 % of control

CS(=O)(=O)OCC1CCc2[nH]c3ccccc3c2C1 (stereo not given)
T/C (dose: 100.0 mg/kg/injection, schedule: Q04DX003 (ip), vehicle: Klucel (hydroxypropylcellulose) (HPC)): 108 % of control | T/C (dose: 200.0 mg/kg/injection, schedule: Q04DX003 (ip), vehicle: Klucel (hydroxypropylcellulose) (HPC)): 97 % of control | T/C (dose: 400.0 mg/kg/injection, schedule: Q04DX003 (ip), vehicle: Klucel (hydroxypropylcellulose) (HPC)): 97 % of control

COc1cc(Cc2nccc3cc(OC)c(OC)cc23)c([N+](=O)[O-])cc1OC
T/C (dose: 100.0 mg/kg/injection, schedule: Q01DX001 (ip), vehicle: saline): 102 % of control | T/C (dose: 100.0 mg/kg/injection, schedule: Q04DX003 (ip), vehicle: saline sonified): 106 % of control | T/C (dose: 200.0 mg/kg/injection, schedule: Q01DX001 (ip), vehicle: saline): 96 % of control | T/C (dose: 200.0 mg/kg/injection, schedule: Q04DX003 (ip), vehicle: saline sonified): 89 % of control | T/C (dose: 300.0 mg/kg/injection, schedule: Q01DX001 (ip), vehicle: saline): 96 % of control | T/C (dose: 400.0 mg/kg/injection, schedule: Q04DX003 (ip), vehicle: saline sonified): 92 % of control

CC(C)CCn1ccc(=O)[nH]c1=O
T/C (dose: 100.0 mg/kg/injection, schedule: Q01DX001 (ip), vehicle: Klucel (hydroxypropylcellulose) (HPC)): 100 % of control | T/C (dose: 200.0 mg/kg/injection, schedule: Q01DX001 (ip), vehicle: Klucel (hydroxypropylcellulose) (HPC)): 98 % of control | T/C (dose: 400.0 mg/kg/injection, schedule: Q01DX001 (ip), vehicle: Klucel (hydroxypropylcellulose) (HPC)): 105 % of control

CC1(C)OC2CS(=O)(=O)CC2O1 (stereo not given)
T/C [1]: 100 % of control | T/C [2]: 105 % of control | T/C [3]: 102 % of control

O=C1c2ccccc2C(=O)c2c1ccc1c(S(=O)(=O)Cl)cccc21
T/C (dose: 100.0 mg/kg/injection, schedule: Q04DX002 (ip), vehicle: saline): 122 % of control | T/C (dose: 200.0 mg/kg/injection, schedule: Q04DX002 (ip), vehicle: saline): 97 % of control | T/C (dose: 400.0 mg/kg/injection, schedule: Q04DX002 (ip), vehicle: saline): 94 % of control

O=C1C=CC(=O)N1c1ccc([N+](=O)[O-])cc1[N+](=O)[O-]
T/C (dose: 12.5 mg/kg/injection, schedule: Q01DX009 (ip), vehicle: Klucel (hydroxypropylcellulose) (HPC)): 98 % of control | T/C (dose: 25.0 mg/kg/injection, schedule: Q01DX009 (ip), vehicle: Klucel (hydroxypropylcellulose) (HPC)): 103 % of control | T/C (dose: 50.0 mg/kg/injection, schedule: Q01DX009 (ip), vehicle: Klucel (hydroxypropylcellulose) (HPC)): 103 % of control | T/C [4]: 105 % of control

CCN(CC)c1ccc(N=Nc2ccccc2)cc1
T/C (dose: 50.0 mg/kg/injection, schedule: Q01DX001 (ip), vehicle: carboxymethylcellulose (CMC)): 93 % of control | T/C (dose: 100.0 mg/kg/injection, schedule: Q01DX001 (ip), vehicle: carboxymethylcellulose (CMC)): 86 % of control | T/C (dose: 200.0 mg/kg/injection, schedule: Q01DX001 (ip), vehicle: carboxymethylcellulose (CMC)): 96 % of control | T/C (dose: 400.0 mg/kg/injection, schedule: Q01DX001 (ip), vehicle: carboxymethylcellulose (CMC)): 98 % of control

C/C(=C/c1ccc(/C=C(\C)[N+](=O)[O-])cc1)[N+](=O)[O-]
T/C (dose: 10.0 mg/kg/injection, schedule: Q01DX001 (ip), vehicle: acetone): 106 % of control

CC(=O)OC(c1ccccc1)C(C)C(OC(C)=O)(C(F)(F)F)C(F)(F)F (stereo not given)
T/C (dose: 100.0 mg/kg/injection, schedule: Q01DX009 (ip), vehicle: saline with Tween-80): 102 % of control | T/C [1]: 102 % of control | T/C (dose: 200.0 mg/kg/injection, schedule: Q01DX009 (ip), vehicle: saline with Tween-80): 98 % of control | T/C [2]: 94 % of control | T/C (dose: 400.0 mg/kg/injection, schedule: Q01DX009 (ip), vehicle: saline with Tween-80): 100 % of control | T/C [3]: 93 % of control

ICC12CC=CCC1(CI)CCCC2 (stereo not given)
T/C (dose: 150.0 mg/kg/injection, schedule: Q04DX002 (ip), vehicle: Klucel (hydroxypropylcellulose) (HPC)): 105 % of control | T/C (dose: 300.0 mg/kg/injection, schedule: Q04DX002 (ip), vehicle: Klucel (hydroxypropylcellulose) (HPC)): 97 % of control

C=C(Br)CNC(=O)CCC
T/C (dose: 5.0 mg/kg/injection, schedule: Q04DX003 (ip), vehicle: saline): 92 % of control | T/C (dose: 10.0 mg/kg/injection, schedule: Q04DX003 (ip), vehicle: saline): 97 % of control

Cc1cccc(CN)n1
T/C (dose: 50.0 mg/kg/injection, schedule: Q01DX009 (ip), vehicle: saline): 98 % of control | T/C (dose: 100.0 mg/kg/injection, schedule: Q01DX009 (ip), vehicle: saline): 98 % of control | T/C (dose: 100.0 mg/kg/injection, schedule: Q04DX003 (ip), vehicle: saline): 104 % of control | T/C (dose: 200.0 mg/kg/injection, schedule: Q01DX009 (ip), vehicle: saline): 97 % of control | T/C (dose: 200.0 mg/kg/injection, schedule: Q04DX003 (ip), vehicle: saline): 104 % of control

O=C(Nc1cccc(C(=O)O)c1)Nc1cccc(Cl)c1Cl
T/C [4]: 98 % of control | T/C (dose: 200.0 mg/kg/injection, schedule: Q01DX009 (ip), vehicle: Klucel (hydroxypropylcellulose) (HPC)): 95 % of control | T/C (dose: 400.0 mg/kg/injection, schedule: Q01DX009 (ip), vehicle: Klucel (hydroxypropylcellulose) (HPC)): 105 % of control

CC(c1ccccc1)C(O)c1ccccc1 (stereo not given)
T/C (dose: 100.0 mg/kg/injection, schedule: Q01DX001 (ip), vehicle: saline with Tween-80): 97 % of control | T/C (dose: 200.0 mg/kg/injection, schedule: Q01DX001 (ip), vehicle: saline with Tween-80): 91 % of control | T/C (dose: 400.0 mg/kg/injection, schedule: Q01DX001 (ip), vehicle: saline with Tween-80): 91 % of control

CSCC(O)CSC
T/C (dose: 100.0 mg/kg/injection, schedule: Q04DX002 (ip), vehicle: saline with Tween-80): 90 % of control | T/C (dose: 200.0 mg/kg/injection, schedule: Q04DX002 (ip), vehicle: saline with Tween-80): 93 % of control | T/C (dose: 400.0 mg/kg/injection, schedule: Q04DX002 (ip), vehicle: saline with Tween-80): 87 % of control

COCCOC1=C(N2CC2)C(=O)C(OCCOC)=C(N2CC2)C1=O
T/C (dose: 0.09 mg/kg/injection, schedule: Q01DX009 (ip), vehicle: saline): 96 % of control | T/C (dose: 0.17 mg/kg/injection, schedule: Q01DX009 (ip), vehicle: saline): 106 % of control | T/C (dose: 0.33 mg/kg/injection, schedule: Q01DX009 (ip), vehicle: saline): 153 % of control | T/C (dose: 0.66 mg/kg/injection, schedule: Q01DX009 (ip), vehicle: saline): 183 % of control | T/C (dose: 1.0 mg/kg/injection, schedule: Q01DX Z (ip), vehicle: saline): 117 % of control | T/C (dose: 1.25 mg/kg/injection, schedule: Q01DX001 (ip), vehicle: saline): 112 % of control | T/C (dose: 1.32 mg/kg/injection, schedule: Q01DX009 (ip), vehicle: saline): 150 % of control | T/C (dose: 2.0 mg/kg/injection, schedule: Q01DX Z (ip), vehicle: saline): 150 % of control | T/C (dose: 2.27 mg/kg/injection, schedule: Q01DX009 (ip), vehicle: saline): 153 % of control | T/C (dose: 3.0 mg/kg/injection, schedule: Q01DX001 (ip), vehicle: saline): 110 % of control | T/C (dose: 3.78 mg/kg/injection, schedule: Q01DX009 (ip), vehicle: saline): 195 % of control | T/C (dose: 4.0 mg/kg/injection, schedule: Q01DX Z (ip), vehicle: saline): 150 % of control | T/C (dose: 5.55 mg/kg/injection, schedule: Q01DX001 (ip), vehicle: saline): 106 % of control | T/C (dose: 6.0 mg/kg/injection, schedule: Q01DX001 (ip), vehicle: saline): 119 % of control | T/C (dose: 6.3 mg/kg/injection, schedule: Q01DX009 (ip), vehicle: saline): 185 % of control | T/C (dose: 8.0 mg/kg/injection, schedule: Q01DX Z (ip), vehicle: saline): 91 % of control | T/C (dose: 10.0 mg/kg/injection, schedule: Q01DX001 (ip), vehicle: saline): 150 % of control and 176 % of control

Cc1nccc2c(C)c3sc4ccccc4c3cc12
T/C (dose: 124.0 mg/kg/injection, schedule: Q01DX001 (ip), vehicle: alcohol): 96 % of control | T/C (dose: 186.0 mg/kg/injection, schedule: Q01DX001 (ip), vehicle: alcohol): 110 % of control | T/C (dose: 280.0 mg/kg/injection, schedule: Q01DX001 (ip), vehicle: alcohol): 117 % of control | T/C (dose: 320.0 mg/kg/injection, schedule: Q01DX001 (ip), vehicle: alcohol): 109 % of control
